# Source: patent US4440784A, “Anti-inflammatory, analgesic, and antipyretic pharmaceutical composition” (Kanegafuchi Chemical Industry Company, Ltd., priority 1981, dated 1984)
# Where two headings read alike, the source gives them in different places.
# Legend:
# [1] = system: carrageenan-induced paw edema in rats; assay: carrageenan-induced paw edema in rats (acute anti-inflammatory activity); type: in vivo, male Wistar strain rats; conditions: po, rat, p.o., 50 mg/kg
# Procedure: (1) An acute anti-inflammatory activity was evaluated by the method of carrageenan-induced paw edema in rats [C. A. Winter et al., Proc. Soc. […] Six male Wistar strain rats weighing 150~180 g were used in each group. […] The volume of each paw edema was measured 3 and 5 hours after the injection of carrageenan. Percent edema inhibition was calculated by the following equation. [formula]
# [2] = system: acetic acid-induced writhing in mice; assay: acetic acid-induced writhing in mice (analgesic activity); type: in vivo, male ddY strain mice; conditions: po; mouse, p.o., 100 mg/kg, 1 hour before acetic acid i.p.; read-out: Inhibition (writhing)
# Procedure: An analgesic activity was evaluated by the method of acetic acid-induced writhing in mice [R. Koster et al., Federation Proc., 18, 412 (1959)]. Ten male ddY strain mice weighing 20~25 g were used in each group. Test compounds suspended in 2.5% acacia were administered p.o. to the mice. One hour later, the mice were injected i.p. with 0.6% acetic acid in a volume of 0.1 ml/10 g body weight. The number of writhes in each of mice was counted for 20 minutes after the injection of the acetic acid. Percent inhibition was calculated by the following equation. [formula]
# [3] = toxicity test in mice (LD50); conditions: in vivo, po; mouse, 14 days observation
# Procedure: Female ICR strain mice weighing 20~25 g in groups of six each were used for toxicity tests. Test compounds suspended in 2.5% acacia were administered p.o. to the mice. The animals were observed daily for 14 days after the administration. The LD50 values were estimated from mortality (No. of dead mice/No. of mice used).
# [4] = system: adjuvant-induced arthritis in rats; assay: adjuvant-induced arthritis in rats (chronic anti-inflammatory activity); type: in vivo, male Sprague-Dawley strain rats; conditions: rat, p.o. once daily
# Procedure: (3) A chronic anti-inflammatory activity was evaluated by the method of adjuvant-induced arthritis in rats [D. T. Walz et al., J. Pharmacol. and Exp. Ther., 178, 223 (1971)]. Eight male Sprague-Dawley strain rats weighing 190~230 g were used in each group. Into the left hind paw of rats was injected i.d. 0.5 mg of Mycobacterium butyricum suspended in 0.05 ml of paraffin oil. Test compounds suspended in 2.5% acacia were administered p.o. once daily for 21 days, starting on the day of the injection of an adjuvant (day 0). Paw volumes of adjuvant-injected and uninjected feet were measured on day 14 and on day 21. Percent inhibition was calculated by the following equation. [formula]
# [5] = system: paper disk-induced granuloma in rats; assay: paper disk-induced granuloma in rats (sub-chronic anti-inflammatory activity); type: in vivo, male Wistar strain rats; conditions: rat, p.o. once daily for 7 days
# Procedure: Six male Wistar strain rats weighing 150~180 g were used in each group. Each paper disk (29±1 mg) was implanted s.c. into the bilateral area of the scapula of rats under anesthesia with amobarbital sodium. […] The rats were killed on day 7, at which time the paper disks with surrounding granulomatous tissues were removed and dried to constant weight overnight, and weighed. Percent inhibition was calculated by the following equation. [formula]
# [6] = system: yeast-induced fever in rats; assay: yeast-induced fever in rats (antipyretic activity); type: in vivo, male Wistar strain rats; conditions: po, rat, p.o., 100 mg/kg
# Procedure: Five male Wistar strain rats weighing 150~180 g were used in each group. A 20% Baker's yeast suspension in 0.9% NaCl was injected s.c. into the dorsal region of rats in a volume of 1 ml/100 g body weight. […] The rectal temperature was determined with a thermometer, 1, 3 and 5 hours after the administration of test compounds. Percent inhibition was calculated by the following equation. [formula]
structure (smiles),measurement,setting,value
"CC(=O)C=Cc1cc(C(C)(C)C)c(O)c(C(C)(C)C)c1 [Compound V, β-Acetyl-3,5-di-tert-butyl-4-hydroxystyrene]",inhibition in vivo at 50 mg/kg,"[1]; 3 hours after carrageenan, read-out: Percent edema inhibition, 3 hours",43.2%
same,inhibition in vivo at 50 mg/kg,"[1]; 5 hours after carrageenan, read-out: Percent edema inhibition, 5 hours",50%
same,inhibition in vivo at 100 mg/kg,[2],53.1%
same,LD50 at 336 h,[3],> 1000 mg/kg
same,"Inhibition, injected foot, Day 14",[4]; 12.5 mg/kg/day,12.0%
same,"Inhibition, injected foot, Day 21",[4]; 12.5 mg/kg/day,29.6%
same,"Inhibition, uninjected foot, Day 14",[4]; 12.5 mg/kg/day,10.6%
same,"Inhibition, uninjected foot, Day 21",[4]; 12.5 mg/kg/day,14.7%
same,"Inhibition, injected foot, Day 14",[4]; 50 mg/kg/day,37.3%
same,"Inhibition, injected foot, Day 21",[4]; 50 mg/kg/day,58.8%
same,"Inhibition, uninjected foot, Day 14",[4]; 50 mg/kg/day,74.5%
same,"Inhibition, uninjected foot, Day 21",[4]; 50 mg/kg/day,69.3%
same,Inhibition (granuloma),[5]; 25 mg/kg/day,29.4%
same,Inhibition (granuloma),[5]; 100 mg/kg/day,29.0%
same,inhibition in vivo at 100 mg/kg,"[6]; 1 hour after administration, read-out: Inhibition (fever), 1 hour",34.5%
same,inhibition in vivo at 100 mg/kg,"[6]; 3 hours after administration, read-out: Inhibition (fever), 3 hours",70.9%
same,inhibition in vivo at 100 mg/kg,"[6]; 5 hours after administration, read-out: Inhibition (fever), 5 hours",64.9%
